ChEMBL document CHEMBL5154907, “Discovery and Anti-Inflammatory Activity Evaluation of a Novel CDK8 Inhibitor through Upregulation of IL-10 for the Treatment of Inflammatory Bowel Disease In Vivo” (J Med Chem, 2022)
The source made the active and inactive calls. No cut-off for these calls is given here.

Legend:
BMDC [1] = assay: Anti-inflammatory activity against R848-stimulated mouse BMDC cells assessed as upregulation of IL-10 production at 5 uM treated for 24 hrs followed by R848 stimulation for 12 hrs by ELISA method (reference value: 100 %); assay type: functional; conditions: time 36 hrs
Mus musculus [2] = assay: Anti-inflammatory activity in DSS-induced C57BL/6 mouse model of inflammatory bowel disease assessed as reduction in colitis development by measuring disease activity index score at 5 to 20 mg/kg, po administered measured after 7 days; assay type: functional, organism-based; conditions: dose 5-20 mg/kg, time 7.0 day, DDE = dose-dependent effect
[3] = Stability of compound in human liver microsome assessed as intrinsic clearance by HPLC analysis; assay type: ADME; conditions: liver microsomes, read-out: CLH
[4] = target: c-Jun N-terminal kinase (Mus musculus) (UniProt Q91Y86+Q9WTU6+Q61831); assay: Inhibition of JNK phosphorylation in R848-stimulated mouse BMDC cells at 1 to 4 uM treated for 2 hrs followed by R848 stimulation for 12 hrs by western blot analysis; assay type: cell-based; conditions: dose 1-4 µM, time 14.0 hrs
c-Jun N-terminal kinase (Mus musculus), sequence (Q61831 whole entry, looked up): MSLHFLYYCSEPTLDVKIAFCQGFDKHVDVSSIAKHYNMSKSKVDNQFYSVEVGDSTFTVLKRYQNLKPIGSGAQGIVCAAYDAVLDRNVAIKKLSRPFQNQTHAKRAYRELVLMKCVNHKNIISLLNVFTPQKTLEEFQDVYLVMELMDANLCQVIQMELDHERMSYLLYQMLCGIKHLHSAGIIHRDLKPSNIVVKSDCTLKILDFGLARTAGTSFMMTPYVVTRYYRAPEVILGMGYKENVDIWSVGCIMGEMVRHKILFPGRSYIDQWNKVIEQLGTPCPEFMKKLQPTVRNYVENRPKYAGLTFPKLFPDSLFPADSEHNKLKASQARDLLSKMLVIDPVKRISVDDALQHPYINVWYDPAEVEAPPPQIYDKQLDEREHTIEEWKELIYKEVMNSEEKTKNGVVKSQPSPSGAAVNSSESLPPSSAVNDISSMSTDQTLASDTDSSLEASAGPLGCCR
c-Jun N-terminal kinase (Mus musculus), sequence (Q91Y86 whole entry, looked up): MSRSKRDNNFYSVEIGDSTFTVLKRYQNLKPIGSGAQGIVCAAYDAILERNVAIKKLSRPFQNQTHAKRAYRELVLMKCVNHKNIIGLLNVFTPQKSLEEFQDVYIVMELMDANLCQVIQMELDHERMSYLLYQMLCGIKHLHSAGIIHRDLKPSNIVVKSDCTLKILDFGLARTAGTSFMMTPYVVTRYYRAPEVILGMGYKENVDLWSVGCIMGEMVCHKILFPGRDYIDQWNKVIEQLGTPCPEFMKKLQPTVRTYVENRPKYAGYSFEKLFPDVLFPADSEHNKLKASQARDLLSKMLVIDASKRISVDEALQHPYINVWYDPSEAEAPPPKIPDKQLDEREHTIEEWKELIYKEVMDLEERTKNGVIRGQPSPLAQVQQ
c-Jun N-terminal kinase (Mus musculus), sequence (Q9WTU6 whole entry, looked up): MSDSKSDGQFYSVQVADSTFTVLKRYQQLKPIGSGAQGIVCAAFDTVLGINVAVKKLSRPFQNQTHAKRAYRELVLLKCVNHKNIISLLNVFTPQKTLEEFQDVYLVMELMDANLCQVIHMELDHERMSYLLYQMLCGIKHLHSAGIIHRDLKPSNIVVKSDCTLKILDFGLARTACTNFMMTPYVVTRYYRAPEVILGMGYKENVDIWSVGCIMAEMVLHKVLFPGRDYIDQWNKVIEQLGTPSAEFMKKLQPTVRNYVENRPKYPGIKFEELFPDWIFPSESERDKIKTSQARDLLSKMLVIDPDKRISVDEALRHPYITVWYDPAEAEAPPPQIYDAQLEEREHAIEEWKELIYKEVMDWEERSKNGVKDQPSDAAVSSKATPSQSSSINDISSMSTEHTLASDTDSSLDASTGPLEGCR

Mus musculus [5] = assay: Anti-inflammatory activity in C57BL/6 mouse model of inflammatory bowel disease assessed as decrease in DSS-induced IL-6 levels in serum at 5 to 20 mg/kg, po daily measured after 10 days by ELISA method; assay type: functional, organism-based; conditions: dose 5-20 mg/kg, time 10.0 day
[6] = target: CDK8/Cyclin C (Homo sapiens) (UniProt P49336+P24863); assay: Inhibition of recombinant full length His tagged human CDK8/Cyclin C expressed in Baculovirus at 200 nM incubated for 60 mins in presence of ATP by ADP-Glo kinase assay
Mus musculus [7] = assay: Anti-inflammatory activity in C57BL/6 mouse model of inflammatory bowel disease assessed as decrease in DSS-induced TNF-alpha levels in colon tissue at 5 to 20 mg/kg, po daily measured after 10 days by ELISA method; assay type: functional, organism-based; conditions: dose 5-20 mg/kg, time 10.0 day
[8] = Half life in Sprague-Dawley rat at 5 mg/kg, iv measured for 3 to 1440 mins by HPLC analysis; assay type: ADME, organism-based; conditions: in vivo, time 3-1440 min
[9] = AUC (0 to infinity) in Sprague-Dawley rat at 5 mg/kg, iv measured for 3 to 1440 mins by HPLC analysis; assay type: ADME, organism-based; conditions: in vivo
[10] = Stability in human liver microsomes; assay type: ADME, Microsome
Mus musculus [11] = assay: Anti-inflammatory activity in C57BL/6 mouse model of inflammatory bowel disease assessed as increase in DSS-induced IL-10 levels in serum administered orally daily measured after 10 days by ELISA method; assay type: functional, organism-based; conditions: dose 5-20 mg/kg, route po, time 10.0 day, DDE = dose-dependent effect
Mus musculus [12] = assay: Anti-inflammatory activity in C57BL/6 mouse model of inflammatory bowel disease assessed as decrease in DSS-induced P38 phosphorylation in colon tissue at 5 to 20 mg/kg, po measured after 10 days by western blot analysis; assay type: functional, organism-based; conditions: dose 5-20 mg/kg, time 10.0 day, DDE = dose-dependent effect
Mus musculus [13] = assay: Anti-inflammatory activity in DSS-induced C57BL/6 mouse model of inflammatory bowel disease assessed as increase in JAK1 phosphorylation in colon tissue at 5 to 20 mg/kg, po measured after 10 days by western blot analysis; assay type: functional, organism-based; conditions: dose 5-20 mg/kg, time 10.0 day
[14] = Acute toxicity in 12 hr fasted ICR mouse assessed as toxic reaction at 2000 mg/kg, po measured daily for 7 days; assay type: organism-based; conditions: in vivo, 168 h, time 7 day
Mus musculus [15] = assay: Anti-inflammatory activity in C57BL/6 mouse model of inflammatory bowel disease assessed as reduction in number of DSS-induced inflammatory cells in colon tissue at 5 to 20 mg/kg, po daily measured after 10 days by hematoxylin and eosin staining based histopathological analysis; assay type: functional, organism-based; conditions: dose 5-20 mg/kg, time 10.0 day
Mus musculus [16] = assay: Anti-inflammatory activity in C57BL/6 mouse model of inflammatory bowel disease assessed as reduction in DSS-induced cellular infiltration in colon tissue at 5 to 20 mg/kg, po daily measured after 10 days by hematoxylin and eosin staining based histopathological analysis; assay type: functional, organism-based; conditions: dose 5-20 mg/kg, time 10.0 day
[17] = Acute toxicity in 12 hr fasted ICR mouse assessed as effect on liver at 2000 mg/kg, po measured after 7 days by hematoxylin and eosin staining based histopathological analysis; assay type: organism-based; conditions: in vivo, 168 h, time 7 day
Mus musculus [18] = assay: Anti-inflammatory activity in C57BL/6 mouse model of inflammatory bowel disease assessed as decrease in DSS-induced IL-6 levels in colon tissue at 5 to 20 mg/kg, po daily measured after 10 days by ELISA method; assay type: functional, organism-based; conditions: dose 5-20 mg/kg, time 10.0 day
[19] = Tmax in Sprague-Dawley rat at 10 mg/kg, po measured for 3 to 1440 mins by HPLC analysis; assay type: ADME, organism-based; conditions: in vivo, time 3-1440 min
[20] = target: Cyclin-dependent kinase 8 (Homo sapiens) (UniProt P49336); assay: Inhibition of CDK8 in human HCT-116 cells assessed as STAT-1 phosphorylation at Ser727 at 1 to 4 uM treated for 24 hrs by western blot analysis; assay type: cell-based; conditions: dose 1-4 µM
Cyclin-dependent kinase 8 (Homo sapiens), sequence (P49336 whole entry): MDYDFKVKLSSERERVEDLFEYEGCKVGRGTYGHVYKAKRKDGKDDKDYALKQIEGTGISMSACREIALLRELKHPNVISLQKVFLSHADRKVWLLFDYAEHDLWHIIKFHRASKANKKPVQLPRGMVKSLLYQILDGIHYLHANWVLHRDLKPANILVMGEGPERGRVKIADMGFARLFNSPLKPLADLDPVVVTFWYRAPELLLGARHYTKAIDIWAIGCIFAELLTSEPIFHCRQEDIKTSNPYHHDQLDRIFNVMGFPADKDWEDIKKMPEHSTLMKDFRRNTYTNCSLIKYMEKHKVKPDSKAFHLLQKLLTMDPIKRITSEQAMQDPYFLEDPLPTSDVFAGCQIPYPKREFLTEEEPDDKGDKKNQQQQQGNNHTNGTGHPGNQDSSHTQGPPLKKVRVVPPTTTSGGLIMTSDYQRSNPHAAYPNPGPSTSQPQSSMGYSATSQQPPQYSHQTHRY

[21] = target: Cyclin-dependent kinase 8 (Homo sapiens) (UniProt P49336); assay: Binding affinity to CDK8 in human HCT-116 cells assessed as increase in thermal stability tolerance at 10 uM treated for 4 hrs followed by compound washout by CETSA assay; assay type: cell-based
BMDC [22] = assay: Anti-inflammatory activity against R848-stimulated mouse BMDC cells assessed as upregulation of IL-10 production by ELISA method; assay type: functional, cell-based
Mus musculus [23] = assay: Anti-inflammatory activity in C57BL/6 mouse model of inflammatory bowel disease assessed as reduction in DSS-induced crypt loss in colon tissue at 5 to 20 mg/kg, po daily measured after 10 days by hematoxylin and eosin staining based histopathological analysis; assay type: functional, organism-based; conditions: dose 5-20 mg/kg, time 10.0 day
[24] = target: T1, Cyclin-dependent kinase 8 (Mus musculus) (UniProt Q8R3L8); assay: Inhibition of CDK8 in IFN-gamma-stimulated mouse BMDC cells assessed as STAT-1 phosphorylation at Ser727 at 1 to 4 uM treated for 2 hrs followed by IFN-gamma stimulation for 12 hrs by western blot analysis; assay type: cell-based; conditions: dose 1-4 µM, time 14.0 hrs
T1 sequence (whole entry): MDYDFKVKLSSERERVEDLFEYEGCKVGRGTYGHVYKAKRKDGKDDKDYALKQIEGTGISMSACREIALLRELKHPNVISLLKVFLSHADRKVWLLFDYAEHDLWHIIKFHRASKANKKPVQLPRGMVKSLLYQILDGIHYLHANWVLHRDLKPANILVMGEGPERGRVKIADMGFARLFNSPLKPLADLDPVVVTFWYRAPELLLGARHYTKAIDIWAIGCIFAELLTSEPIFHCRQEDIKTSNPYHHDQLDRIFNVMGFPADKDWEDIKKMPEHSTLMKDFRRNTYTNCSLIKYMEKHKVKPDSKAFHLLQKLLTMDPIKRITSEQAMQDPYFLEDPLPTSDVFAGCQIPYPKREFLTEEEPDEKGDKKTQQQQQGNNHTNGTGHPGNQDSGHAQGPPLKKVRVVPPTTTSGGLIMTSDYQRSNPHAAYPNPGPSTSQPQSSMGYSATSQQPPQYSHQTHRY

Mus musculus [25] = assay: Anti-inflammatory activity in C57BL/6 mouse model of inflammatory bowel disease assessed as suppression of DSS-induced NF-kappa-B p65 expression in colon tissue at 5 to 20 mg/kg, po measured after 10 days by western blot analysis; assay type: functional, organism-based; conditions: dose 5-20 mg/kg, time 10.0 day

CCc1ccccc1NC(=O)c1cncc(-c2ccc(C(=O)N3CCNCC3)cc2)c1
Activity (BMDC [1]): 88% | Activity (Mus musculus [2]): Dde | microsomal CLint [3]: 5.5 µL/min/mg | inhibition [4]: Active | Activity (Mus musculus [5]): Active | inhibition [6]: 85% | Activity (Mus musculus [7]): Active | half-life [8]: 1.83 h | AUC(0-inf) [9]: 642 ng·h/mL | Stability [10]: Stable | Activity (Mus musculus [11]): Dde | Activity (Mus musculus [12]): Dde | Activity (Mus musculus [13]): Active | Activity [14]: Non-Toxic | Activity (Mus musculus [15]): Active | Activity (Mus musculus [16]): Active | Activity [17]: Non-Toxic | Activity (Mus musculus [18]): Active | Tmax [19]: 0.73 h | inhibition [20]: Active | Activity [21]: Active | Activity (BMDC [22]): Active | Activity (Mus musculus [23]): Active | inhibition [24]: Active | Activity (Mus musculus [25]): Active
